Reference: the NIST ThermoML archive (doi:10.1021/je1003065)

Assay: mn = molality of the nth substance listed, in mol/kg
Conditions: Liquid, Vibrating tube method

[Br-].[Li+] [lithium bromide] + CCO
Conditions	mass density [kg/m3]
348.15 K, 5002 kPa, m1 = 0.2335	761.71
348.15 K, 5002 kPa, m1 = 1.462	838.72
348.15 K, 5004 kPa, m1 = 0.9499	807.6
348.15 K, 5004 kPa, m1 = 2.272	885.02
348.15 K, 5012 kPa, m1 = 2.833	915.98
348.15 K, 5024 kPa, m1 = 3.368	943.65
348.15 K, 5412 kPa, m1 = 0.5972	785.83
348.15 K, 10064 kPa, m1 = 0.9499	812.44
348.15 K, 19957 kPa, m1 = 2.833	928.46
348.15 K, 19985 kPa, m1 = 0.2335	776.82
348.15 K, 19985 kPa, m1 = 0.9499	821.56
348.15 K, 20024 kPa, m1 = 1.462	852.51
348.15 K, 29942 kPa, m1 = 0.9499	830.19
348.15 K, 29985 kPa, m1 = 3.368	963.31
348.15 K, 39784 kPa, m1 = 0.9499	838.22
348.15 K, 39945 kPa, m1 = 0.5972	816.93
348.15 K, 39947 kPa, m1 = 0.2335	794.15
348.15 K, 39957 kPa, m1 = 2.833	943.19
348.15 K, 39978 kPa, m1 = 3.368	970.26
348.15 K, 40002 kPa, m1 = 1.462	868.51
348.15 K, 49921 kPa, m1 = 2.272	920.25
348.15 K, 49926 kPa, m1 = 2.833	949.82
348.15 K, 49927 kPa, m1 = 0.9499	845.97
348.15 K, 59947 kPa, m1 = 0.2335	809.42
348.15 K, 59956 kPa, m1 = 0.5972	831.96
348.15 K, 59986 kPa, m1 = 1.462	882.36
348.15 K, 60002 kPa, m1 = 0.9499	853.14
348.15 K, 60024 kPa, m1 = 3.368	982.97
348.15 K, 69784 kPa, m1 = 0.9499	859.6
348.15 K, 69784 kPa, m1 = 2.272	932.62
348.15 K, 70024 kPa, m1 = 2.833	962.07
348.15 K, 79325 kPa, m1 = 0.9499	865.42
348.15 K, 79924 kPa, m1 = 3.368	994.3
348.15 K, 79956 kPa, m1 = 1.462	894.65
348.15 K, 80004 kPa, m1 = 0.2335	822.02
348.15 K, 80021 kPa, m1 = 0.5972	844.82
348.15 K, 89923 kPa, m1 = 3.368	999.65
348.15 K, 89926 kPa, m1 = 0.2335	827.8
348.15 K, 89931 kPa, m1 = 2.272	944.08
348.15 K, 89932 kPa, m1 = 1.462	900.39
348.15 K, 89935 kPa, m1 = 0.9499	871.34
348.15 K, 89954 kPa, m1 = 2.833	973.13
348.15 K, 99845 kPa, m1 = 1.462	905.92
348.15 K, 99934 kPa, m1 = 3.368	1004.87
348.15 K, 99935 kPa, m1 = 0.9499	876.39
348.15 K, 99945 kPa, m1 = 2.272	949.54
348.15 K, 99957 kPa, m1 = 0.2335	833.35
348.15 K, 99968 kPa, m1 = 2.833	978.42
348.15 K, 99985 kPa, m1 = 0.5972	855.43
348.16 K, 10021 kPa, m1 = 2.272	890.16
348.16 K, 10032 kPa, m1 = 3.368	947.88
348.16 K, 10034 kPa, m1 = 1.462	843.52
348.16 K, 19902 kPa, m1 = 0.5972	799.98
348.16 K, 29784 kPa, m1 = 2.272	906.12
348.16 K, 30024 kPa, m1 = 2.833	936.13
348.16 K, 49923 kPa, m1 = 0.2335	802.07
348.16 K, 49952 kPa, m1 = 3.368	976.77
348.16 K, 59932 kPa, m1 = 2.272	926.65
348.16 K, 69784 kPa, m1 = 1.462	888.55
348.16 K, 70013 kPa, m1 = 0.5972	838.69
348.16 K, 79926 kPa, m1 = 2.833	967.67
348.17 K, 50201 kPa, m1 = 1.462	875.81
348.17 K, 69845 kPa, m1 = 0.2335	816.09
353.09 K, 80053 kPa, m1 = 1.462	891.89
353.1 K, 9980 kPa, m1 = 1.462	839.5
353.1 K, 19703 kPa, m1 = 1.462	848.5
353.1 K, 29947 kPa, m1 = 1.462	857.25
353.1 K, 39836 kPa, m1 = 1.462	865.06
353.1 K, 49993 kPa, m1 = 1.462	872.5
353.1 K, 60279 kPa, m1 = 1.462	879.53
353.1 K, 69928 kPa, m1 = 1.462	885.72
353.1 K, 89979 kPa, m1 = 1.462	897.68
353.1 K, 99915 kPa, m1 = 1.462	903.29
353.11 K, 5043 kPa, m1 = 1.462	834.64
353.13 K, 1217 kPa, m1 = 1.462	830.74
353.13 K, 5143 kPa, m1 = 0.5972	781.1
353.13 K, 10028 kPa, m1 = 2.272	886.04
353.13 K, 20124 kPa, m1 = 2.272	895.23
353.13 K, 29947 kPa, m1 = 2.272	902.89
353.13 K, 89945 kPa, m1 = 0.2335	824.73
353.13 K, 99992 kPa, m1 = 2.272	946.74
353.14 K, 9986 kPa, m1 = 2.833	916.2
353.14 K, 19985 kPa, m1 = 0.2335	772.17
353.14 K, 20259 kPa, m1 = 0.5972	796.52
353.14 K, 29993 kPa, m1 = 0.5972	804.77
353.14 K, 39486 kPa, m1 = 2.272	909.8
353.14 K, 49965 kPa, m1 = 2.833	946.54
353.14 K, 49994 kPa, m1 = 2.272	916.93
353.14 K, 60014 kPa, m1 = 2.272	924.01
353.14 K, 69979 kPa, m1 = 2.272	929.91
353.14 K, 80071 kPa, m1 = 2.272	936.01
353.14 K, 89925 kPa, m1 = 2.833	970.1
353.14 K, 89993 kPa, m1 = 2.272	941.4
353.15 K, 1023 kPa, m1 = 0.2335	752.56
353.15 K, 1302 kPa, m1 = 2.833	908.32
353.15 K, 1405 kPa, m1 = 0.9499	799.45
353.15 K, 5002 kPa, m1 = 0.2335	756.87
353.15 K, 5015 kPa, m1 = 2.833	911.75
353.15 K, 5074 kPa, m1 = 0.9499	803.32
353.15 K, 9985 kPa, m1 = 0.9499	808.32
353.15 K, 10021 kPa, m1 = 0.2335	762.65
353.15 K, 19924 kPa, m1 = 0.9499	817.86
353.15 K, 19927 kPa, m1 = 2.833	924.6
353.15 K, 29784 kPa, m1 = 0.9499	826.6
353.15 K, 29974 kPa, m1 = 0.2335	781.57
